As a reminder, the pKa is the negative logarithm of the acid dissociation constant. A higher pKa goes with a group that holds its proton tightly. `NCCCCNCCCN`: the pKa (basic group) was found to be 10.6.

For the compound `CC(C)Oc1ccccc1C(=O)O`, the pKa (acidic group) was determined as 4.24.

Consider `O=C([O-])[C@@H]1Cc2[nH]cnc2CN1`, for which the pKa (basic group) was 8.58.

The compound `Cc1ccccc1C(=NCCCN(C)C)c1ccccc1C` gave a pKa (basic group) of 8.7.

Where the note is “basic group”, `CCCCNC` came in with a pKa of 10.8.

For the compound `Cc1ccc(C)nc1`, under “basic group”, the pKa came to 6.4.

`CCN(CC)c1ccc([N+](=O)[O-])cc1`: the pKa (basic group) turned out to be 1.7.

Turning to `O=C(O)c1c2ccccc2cc2ccccc12`, where the note is “acidic group”, the pKa was 3.65.

Where the note is “acidic group”, `COc1cc(C(=O)O)cc(OC)c1O` displayed a pKa of 4.2.

The compound `c1ccc(-c2[nH]cc[nH+]2)nc1` displayed a pKa (basic group) of 0.6.

As to `O=C(O)[C@@H]1CC[C@@H](C(=O)O)[Se]1`, the pKa (acidic group) worked out at 3.46.

For the compound `NC(=O)c1ccncc1`, the pKa reads like this: (acidic group) 10.5; (basic group) 3.57.

As for `O=C([O-])C(CO)NCc1ccccc1O` (configuration not stated), the pKa reads like this: (acidic group) 10.4; (basic group) 8.22.

`O=C(O)c1cc2ccccc2o1` had a pKa (acidic group) of 2.84.

As for `CCCn1cnc2ccccc21`, the pKa (basic group) worked out at 5.46.

Compound `CCOc1ccc(Nc2ccccc2)cc1` had a pKa (basic group) of 1.41.

Compound `O=C(O)c1csc(Br)n1` returned a pKa (acidic group) of 3.28.

Consider `Cc1ccccc1CN`, for which the pKa (basic group) is 9.23.

Under “acidic group”, `CC([SeH])C[NH3+]` (configuration not stated) yielded a pKa of 5.19.

`Cc1cccc(/C=N/O)n1`: the pKa (acidic group) turned out to be 10.

In the case of `CC(=O)Nc1cccnc1`, the pKa (basic group) was 4.44.

The compound `C=CCC(C)(CN(CC)CC)OC(=O)c1ccccc1` (configuration not stated) came in with a pKa (basic group) of 7.8.

`O=C([O-])c1nc2cc(Cl)ccc2[nH]1` registered a pKa (basic group) of 4.3.

`CC(CC(c1ccccc1)c1ccccc1)N1CCOCC1` (configuration not stated) had a pKa (basic group) of 6.9.

Where the note is “acidic group”, `CC(=O)[n+]1ccccc1` yielded a pKa of 5.32.

With `[O-]B(O)c1cccc(O)c1`, the pKa (acidic group) was determined as 10.8.

For the compound `CC(C)(C)Cc1ccc(O)cc1`, where the note is “acidic group”, the pKa was determined as 10.7.

On to `C[NH+](C)CCc1c[nH]c2ccc(O)cc12`, for which the pKa (acidic group) was determined as 9.73.

In the case of `O=C1c2ccccc2C(=O)N1O`, under “acidic group”, the pKa turned out to be 6.13.

`c1ccc(N=P(c2ccccc2)(c2ccccc2)c2ccccc2)cc1`: where the note is “basic group”, the pKa was -0.92.

The compound `CC(C(=O)c1ccccc1)[n+]1ccccc1` (configuration not stated) displayed a pKa (acidic group) of 11.5.

Compound `C[n+]1c2ccccc2cc2cc(N)ccc21` came in with a pKa (acidic group) of 9.8.

On to `Cc1[nH]cnc1CSCCNC(=[NH2+])NCCCc1c[nH]c[nH+]1`, for which the pKa (basic group) came out at 6.41.

`CC(=O)N1CCC[C@H]1C(=O)O` registered a pKa (acidic group) of 3.21.

For the compound `Nc1cc2ccccc2cc1O`, the pKa (acidic group) amounted to 9.35.

`CC(=O)c1ccccc1O`: the pKa (acidic group) came to 10.4.

Compound `N[C@H](c1ccccc1)[C@H](O)c1ccccc1` returned a pKa (basic group) of 10.5.

Turning to `COc1ccc(C2CN2)cc1` (configuration not stated), the pKa (basic group) was determined as 8.7.

`C[NH2+]CCN(C)CC[NH2+]C` had a pKa (basic group) of 3.13.

`C=C(C)/C(C)=C(\C)O` displayed a pKa (acidic group) of 12.

For `c1cnc2c(c1)ccc1ccc[nH+]c12`, the pKa (basic group) worked out at 2.04.

For the compound `CCCCCCCNCc1ccc(C)cc1`, the pKa (basic group) came out at 10.

For the compound `CC(=O)OCC1CN2CCC1CC2` (configuration not stated), the pKa (basic group) was 10.3.

As for `Clc1cccnc1`, where the note is “basic group”, the pKa came out at 2.77.

`O/N=C/c1cccnc1`: the pKa by setting is: (acidic group) 10.3; (basic group) 3.94.

The compound `O=C([O-])Cc1nnn[nH]1` came in with a pKa (acidic group) of 5.32.

As for `Oc1cccc(Br)c1`, the pKa (acidic group) worked out at 8.99.

Take `CSc1nc2cc3c(cc2[nH]1)CCCC3`: the pKa was determined as 13 (acidic group) and 5 (basic group).

With `OCCN1CCN(CCO)CC1`, for the setting “acidic group”, the pKa was found to be 7.75.

Consider `O=C(O)CC[C@H]1CC[C@H](O)CC1`, for which the pKa (acidic group) came to 4.86.

Take `CCc1cc(C)cc(O)c1`: the pKa (acidic group) stood at 10.1.

Compound `CC[NH+](CC)CCCCCCNc1c2ccc(Cl)cc2nc2ccc(OC)cc12` gave a pKa (basic group) of 8.12.

Take `COO`: the pKa (acidic group) is 11.5.

For the setting “basic group”, `CC(C)CN` yielded a pKa of 10.4.

`COc1ccc2c3c1O[C@H]1CCC[C@H]4[C@@H]([C@H]2O)N(C)CC[C@]314` showed a pKa (basic group) of 7.71.

As for `C1CNCCNCC[NH2+]C1`, the pKa (basic group) was found to be 6.75.

As to `O=[N+]([O-])c1ccc(-c2ncc(-c3ccccc3)o2)cc1`, the pKa (basic group) was -0.61.

As for `Nc1nc([O-])c2nc[nH]c2n1`, the pKa (acidic group) was determined as 12.6 and the pKa (basic group) amounted to 9.3.

In turn, `Cc1cc(Nc2ccc([O-])cc2)c(C(C)C)cc1O` registered a pKa (acidic group) of 10.7.

Take `c1cncc([C@@H]2CCCCN2)c1`: under “basic group”, the pKa stood at 4.01.

For `On1nnc2cc(Cl)ccc21`, for the setting “acidic group”, the pKa worked out at 4.18.

On to `Cc1nc2ccccc2n(C)c1=O`, for which, for the setting “basic group”, the pKa was 0.51.

`COc1cc2c(OC)ncnc2c(OC)c1OC`: where the note is “basic group”, the pKa amounted to 3.34.

For the setting “acidic group”, `COc1ccc(C(=O)O)cc1C` registered a pKa of 4.35.

`N#Cc1cncc2ccccc12` came in with a pKa (basic group) of 2.04.

In turn, `CC(N)CC1CCCCC1` (configuration not stated) yielded a pKa (basic group) of 10.1.

`CC1C(=O)c2ccccc2C1=O` gave a pKa (acidic group) of 6.17.
